Biological target: T1, medaka Esr1 (mEsr1) (Oryzias latipes, UniProt P50241)
T1 construct: expressed in transfected cells; host or cells: HEK293 (human embryonic kidney cells), transient transfection with FuGENE HD
T1 sequence (P50241 1-620): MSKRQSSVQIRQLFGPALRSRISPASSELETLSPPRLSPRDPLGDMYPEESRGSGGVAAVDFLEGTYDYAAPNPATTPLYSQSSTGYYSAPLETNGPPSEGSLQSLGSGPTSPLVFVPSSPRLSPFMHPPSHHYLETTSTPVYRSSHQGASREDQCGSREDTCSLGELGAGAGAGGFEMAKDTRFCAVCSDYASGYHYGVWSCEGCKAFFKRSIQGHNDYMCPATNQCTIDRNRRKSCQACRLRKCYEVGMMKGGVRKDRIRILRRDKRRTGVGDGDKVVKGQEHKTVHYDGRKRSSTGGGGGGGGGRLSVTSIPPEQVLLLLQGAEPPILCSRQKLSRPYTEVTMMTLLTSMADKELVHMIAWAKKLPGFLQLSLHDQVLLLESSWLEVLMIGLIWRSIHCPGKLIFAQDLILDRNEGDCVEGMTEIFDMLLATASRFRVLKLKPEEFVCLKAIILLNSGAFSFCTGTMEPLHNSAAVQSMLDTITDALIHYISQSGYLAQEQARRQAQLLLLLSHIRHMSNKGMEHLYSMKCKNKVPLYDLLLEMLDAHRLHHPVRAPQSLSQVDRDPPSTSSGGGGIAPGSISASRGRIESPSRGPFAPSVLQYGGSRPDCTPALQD
Test: Medaka Esr1 reporter gene assay (RGA), antagonist assay with 1 nM E2, HEK293 cells
Type: cell-based, Japanese medaka (Oryzias latipes)
Description: To support interpretation of the biological effects observed in the FSTRA studies, in vitro RGAs using medaka Esr1 (mEsr1) and medaka ARβ (mARβ) were performed for the 16 test chemicals. In the present study, Esr1 and ARβ, which are ancestral subtypes among Esrs and ARs in Japanese medaka, were selected based on the phylogenetical analyses of Esr and AR with each receptor RGAs (Ogino et al., [2016], [2018]; Tohyama et al., [2015]).
The mEsr1 RGA consisting of agonist and antagonist assays were performed according to the methods previously reported (Katsu et al., [2010]; Lange et al., [2012]; Miyagawa et al., [2014]). Briefly, human embryonic kidney cells 293 (HEK293), precultured, were seeded in 96‐well plates at 15,000 cells/well with 200 μl of culture medium, phenol‐red‐free Dulbecco's Modified Eagle's medium (ThermoFisher Scientific K.K., Tokyo, Japan) supplemented with 2‐mM L‐glutamine and 10% charcoal/dextran‐treated fetal bovine serum (Hyclone, UT, USA), and then incubated for 24 h in 5% CO2 at 37°C. After the 24‐h incubation, 20 μl of test medium containing 40 ng of medaka Esr1/pcDNA3.1, 80 ng of ERE‐TK‐Luc, and 20 ng of pRL‐TK‐Rlu and 1.2 μL of transfection reagent FuGENE HD (Promega, WI, USA) were added into each well. The assay plates were incubated for another 4 h in order to transfect the three vectors into the HEK293 cells. After the vectors were successfully transfected, in agonist assay, 24 μl of concentrated test chemical solution was applied to the test medium in the plate wells. […] After chemical treatment for 40 h, luciferase activity of the cells was measured, and the promoter activity was calculated as firefly (Photinus pyralis)‐/sea pansy (Renilla reniformis)‐luciferase activity in each well. The luciferase activities were quantified by a chemiluminescence assay with Dual‐Luciferase Reporter Assay System (Promega) in accordance with the manufacturer's instructions, and luminescence intensity of firefly and sea pansy luciferin was measured using a luminometer, TriStar LB941 (Berthold Technology, Oak Ridge, TN, USA).
Effect concentrations, that is, EC50 (a half maximal effective concentration) in the agonist assay and IC50 (a half maximal inhibitory concentration) in the antagonist assay, were estimated by nonlinear curve fitting (e.g., three parameters logistic regression curve) using GraphPad Prism (GraphPad Software Inc., La Jolla, CA, USA).

IC50: 0.52 nM
SMILES: CC/C(=C(\c1ccc(O)cc1)c1ccc(OCCN(C)C)cc1)c1ccccc1 [4HTAM, 4‐hydroxytamoxifen]

Source: article PMC8359193, “Summary of reference chemicals evaluated by the fish short‐term reproduction assay, OECD TG229, using Japanese Medaka, Oryzias latipes” (Journal of Applied Toxicology, 2021)
